Experimental data from patent US12691070B2, “Cationic lipids and preparation method thereof” (RiboX Therapeutics HK Limited, priority 2023, dated 2026).

Experiments:
[1] = LNP size and polydispersity index (PDI) by dynamic light scattering; assay type: physicochemical; settings: for Size: in nm (unit assumed)
In short: (§1)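 Ribogreen fluorescence with and without Triton X-100 gave encapsulation as 100% − (intact/lysed) signal; DLS size, PDI and zeta potential measured on a Zetasizer. Particles: 50:10:38.5:1.5 lipid mix, luciferase circRNA or mRNA, lipid:nucleotide 15 or 6, microfluidic assembly at pH 4.5, PBS-dialyzed.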

[2] = LNP zeta potential (Zetasizer); assay type: physicochemical
In short: as §1

[3] = RNA encapsulation efficacy by Quant-IT Ribogreen kit; assay type: physicochemical
In short: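 Ribogreen read-out: encapsulation = 100% − (signal of intact RNA-LNPs / signal with Triton X-100). Particles: ionizable lipid:DSPC:Chol:DMG-PEG2000 50:10:38.5:1.5, ionizable lipid:ribonucleotide 15 or 6, final lipid 1.5–6 mM, PBS-dialyzed.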

[4] = system: Hep G2 cells; assay: In vitro expression of firefly-luciferase, Hep G2; assay type: cell-based
In short: (§2)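 Both cell lines receive RNA-LNPs carrying firefly-luciferase RNA at 100 ng/mL. Lysis follows washing at 72 h post-transfection, and luciferase activity is then quantified on a luminometer using a commercial luciferase assay reagent.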

[5] = system: RAW 264.7 cells; assay: In vitro expression of firefly-luciferase, RAW 264.7; assay type: cell-based; settings: mRNA (SEQ ID NO: 2) LNP, 100 ng/mL, 72 hours post transfection, luciferase activity
In short: as §2

[6] = system: Hep G2 cells; assay: In vitro toxicity (CellTiter-Glo cell viability), Hep G2; assay type: cell-based; settings: mRNA (SEQ ID NO: 2) LNP, 1 μg/mL, 72 hours post transfection;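 also: percent of untreated cells luminescence signal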
In short: (§3)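 RNA-LNPs 1 μg/mL; 72 h post-transfection; CellTiter-Glo luminescence read-out; % viability calculated from signal.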

[7] = system: RAW 264.7 cells; assay: In vitro toxicity (CellTiter-Glo cell viability), RAW 264.7; assay type: cell-based; settings: mRNA (SEQ ID NO: 2) LNP, 1 μg/mL, 72 hours post transfection;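 also: percent of untreated cells luminescence signal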
In short: as §3

[8] = system: BALB/C mice; assay: In vivo expression, whole-body luminescence (IVIS); settings: mRNA (SEQ ID NO: 2) LNP, 0.05 mg*kg-1 intravenous, 6 hours post injection
Description: 6-8 week old, female BALB/C mice were injected with 0.05 mg*kg-1 of RNA-LNPs encoding for firefly-luciferase by intravenous injection. At 6 hours post injection, animals were intraperitoneally injected with 15 mg/ml of Luciferin substrate and whole-body luminescence was determined by a bioluminescent in vivo imaging system (IVIS).

[9] = Long term stability analysis / stability under LNP synthesis conditions (Ethanol and PBS pH=7.4); assay type: physicochemical; settings: after incorporation into lipid nanoparticles / LNP synthesis conditions
Description: The purity of the lipids was tested, after they were incorporated into lipid nanoparticles, only to find that the Reference Lipids were cleaved under LNP synthesis conditions, either via transesterification or hydrolysis.

PDI ([1]; LNP with cirRNA (SEQ ID NO: 1)): 0.1152
Size ([1]; LNP with cirRNA (SEQ ID NO: 1)): 118.3
PDI ([1]; LNP with mRNA (SEQ ID NO: 2)): 0.08023
Size ([1]; LNP with mRNA (SEQ ID NO: 2)): 139.5
Zeta (mV) ([2]; LNP with cirRNA (SEQ ID NO: 1)): −1.304 mV
Zeta (mV) ([2]; LNP with mRNA (SEQ ID NO: 2)): 8.776 mV
Encapsulation Efficiency % ([3]; LNP with cirRNA (SEQ ID NO: 1)): 74%
Encapsulation Efficiency ([3]; LNP with mRNA (SEQ ID NO: 2)): 84.38%
Stability of the lipid (cleavage, hydrolysis) [9]: extensive hydrolysis of the ester moiety
Structure (SMILES): CCCCC/C=C\CCOC(=O)CCCCCCCN(CCCCCCCC(=O)OCC/C=C\CCCCC)CCOC(=O)CCCN(C)C [Lipid C, reference compound]
In vitro Expression HepG2 ([4]; cirRNA (SEQ ID NO: 1) LNPs, firefly-luciferase luminescence, Hep G2 cells): 8.20E+02
In vitro Expression HepG2 ([4]; mRNA (SEQ ID NO: 2) LNP, 100 ng/mL, 72 hours post transfection, luciferase activity): 1.03E+04
In vitro Expression RAW [5]: 4.63E+05
In vitro Viability HepG2 [6]: 103%
In vitro Viability RAW [7]: 88%
In vivo Expression (Whole Body) [8]: 4.72E+05
